This is an account of results in patent publication US20210269434A1, “TRICYCLIC COMPOUNDS AS INHIBITORS OF KRAS” (Incyte Corporation, priority 2020, published 2021).

One test concerns the target KRAS G12D (Homo sapiens, UniProt P01116, G12D). Put plainly: GDP-GTP exchange assay (KRAS_G12D exchange). Format: biochemical. To be noted: bodipy loaded KRAS G12D 2.5 nM; 4 hours incubation after GppNHp-SOS1; read-out: G12D_exchange. Here is the method:
Example A. GDP-GTP Exchange Assay
The inhibitor potency of the exemplified compounds was determined in a fluorescence based guanine nucleotide exchange assay, which measures the exchange of bodipy-GDP (fluorescently labeled GDP) for GppNHp (Non-hydrolyzable GTP analog) to generate the active state of KRAS in the presence of SOS1 (guanine nucleotide exchange factor). Inhibitors were serially diluted in DMSO and a volume of 0.1 μL was transferred to the wells of a black low volume 384-well plate. 5 μL/well volume of bodipy-loaded KRAS G12C diluted to 5 nM in assay buffer (25 mM Hepes pH 7.5, 50 mM NaCl, 10 mM MgCl2 and 0.01% Brij-35) was added to the plate and pre-incubated with inhibitor for 2 hours at ambient temperature. Appropriate controls (enzyme with no inhibitor or with a G12C inhibitor (AMG-510)) were included on the plate. The exchange was initiated by the addition of a 5 μL/well volume containing 1 mM GppNHp and 300 nM SOS1 in assay buffer. The 10 μL/well reaction concentration of the bodipy-loaded KRAS G12C, GppNHp, and SOS1 were 2.5 nM, 500 uM, and 150 nM, respectively. The reaction plates were incubated at ambient temperature for 2 hours, a time estimated for complete GDP-GTP exchange in the absence of inhibitor. For the KRAS G12D and G12V mutants, similar guanine nucleotide exchange assays were used with 2.5 nM as final concentration for the bodipy loaded KRAS proteins and with 4 hours and 3 hours incubation after adding GppNHp-SOS1 mixture for G12D and G12V respectively. A cyclic peptide described to selectively bind G12D mutant (Sakamoto et al., BBRC 484.3 (2017), 605-611) or internal compounds with confirmed binding were used as positive controls in the assay plates. Fluorescence intensities were measured on a PheraStar plate reader instrument (BMG Labtech) with excitation at 485 nm and emission at 520 nm.
Either GraphPad prism or XLfit was used to analyze the data. The IC50 values were derived by fitting the data to a four parameter logistic equation producing a sigmoidal dose-response curve with a variable Hill coefficient. Prism equation: Y=Bottom+(Top−Bottom)/(1+10^((Log lC50−X)*Hill slope)); XLfit equation: Y=(A+((B−A)/(1+((X/C)^D)))) where X is the logarithm of inhibitor concentration and Y is the response.

The target in the next test is KRAS G12C (Homo sapiens, UniProt P01116, G12C). Put plainly: GDP-GTP exchange assay (KRAS_G12C exchange). Type of test: biochemical. The note with it: bodipy-GDP loaded KRAS G12C 2.5 nM, SOS1 150 nM, GppNHp; 2 hours pre-incubation, 2 hours reaction; read-out: G12C_exchange. The method, boiled down: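 Fluorescence exchange of bodipy-GDP for GppNHp, SOS1-driven, read at 485/520 nm; IC50 from four-parameter variable-slope fit. Both mutants used 2.5 nM final labelled protein and a 2 h compound pre-incubation. G12C reaction had 500 uM GppNHp and 150 nM SOS1 for 2 h; G12D ran 4 h.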

For test [1], the system named is MIA PaCa-2 (KRAS G12C) cells. Put plainly: Cellular pERK HTRF assay (KRAS_G12C pERK). Type of test: cell-based, human. The note with it: Homo sapiens, MIA PaCa-2, 4 hours incubation, read-out: G12C_pERK. Summed up:
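Phospho-ERK1/2 HTRF readout (665 and 620 nm) in lysed MIA PaCa-2 cells, antibodies incubated overnight at room temperature. Cells seeded the day before and treated with G12C compounds for 4 h at 37 °C; IC50 fitted to percent inhibition against log inhibitor concentration.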

Molecules are shown by their SMILES. pIC50: −log10 of the molar value.

KRAS G12D, sequence (P01116 1-188 isoform P01116-2 G12D): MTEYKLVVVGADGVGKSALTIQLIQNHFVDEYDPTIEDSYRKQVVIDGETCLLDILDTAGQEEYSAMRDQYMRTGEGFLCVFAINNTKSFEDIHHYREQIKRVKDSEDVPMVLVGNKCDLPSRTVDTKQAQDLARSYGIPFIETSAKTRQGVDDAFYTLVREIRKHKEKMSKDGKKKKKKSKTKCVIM
KRAS G12C, sequence (P01116 1-188 isoform P01116-2 G12C): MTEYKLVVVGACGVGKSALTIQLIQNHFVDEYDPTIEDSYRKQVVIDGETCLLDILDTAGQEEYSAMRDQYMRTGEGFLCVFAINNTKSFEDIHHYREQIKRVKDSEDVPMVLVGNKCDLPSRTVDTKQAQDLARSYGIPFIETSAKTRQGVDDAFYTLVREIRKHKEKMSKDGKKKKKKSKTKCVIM

Take `CN(C)Cc1nc2c(N3CC(N(C)C)C3)nc3c(F)c(-c4cc(O)cc5ccccc45)c(Cl)cc3c2n1[C@H]1[C@H]2CN[C@@H]1C2` (racemic) [Example 49, 4-(1-((endo)-2-azabicyclo[2.1.1]hexan-5-yl)-8-chloro-4-(3-(dimethylamino)-azetidin-1-yl)-2-((dimethylamino)methyl)-6-fluoro-1H-imidazo[4,5-c]quinolin-7-yl)naphthalen-2-ol]: the pIC50 at KRAS G12D is 5.00 to 5.30.

Take `CN(C)C(=O)CCc1nc2c(N3CC(N(C)C)C3)nc3c(Cc4ccccc4)c(-c4cc(O)cc5ccccc45)c(CCC#N)cc3c2n1[C@@H]1[C@@H]2CN[C@H]1C2` (racemic) [Example 294, 3-(6-benzyl-1-((endo)-2-azabicyclo[2.1.1]hexan-5-yl)-8-(2-cyanoethyl)-4-(3-(dimethylamino)azetidin-1-yl)-7-(3-hydroxynaphthalen-1-yl)-1H-imidazo[4,5-c]quinolin-2-yl)-N,N-dimethylpropanamide]: the pIC50 on KRAS G12D is 6.00 to 7.00.

Consider `CN(C)C1CN(c2nc3c(F)c(-c4cc(O)cc5ccccc45)c(C#N)cc3c3c2ncn3[C@H]2[C@H]3CN[C@@H]2C3)C1` (relative stereo) [Example 50, 1-((endo)-2-azabicyclo[2.1.1]hexan-5-yl)-4-(3-(dimethylamino)azetidin-1-yl)-6-fluoro-7-(3-hydroxynaphthalen-1-yl)-1H-imidazo[4,5-c]quinoline-8-carbonitrile], for which, at KRAS G12D, the pIC50 is 6.00 to 7.00.

As for `CN(C)C1CN(c2nc3c(F)c(-c4cc(O)cc5ccccc45)c(Cl)cc3c3c2nc(CO)n3[C@H]2[C@H]3CN[C@@H]2C3)C1` (relative stereo) [Example 75, 4-(1-((endo)-2-azabicyclo[2.1.1]hexan-5-yl)-8-chloro-4-(3-(dimethylamino)-azetidin-1-yl)-6-fluoro-2-(hydroxymethyl)-1H-imidazo[4,5-c]quinolin-7-yl)naphthalen-2-ol], the pIC50 on KRAS G12D was 6.00 to 7.00.

For the compound `CN(C)C1CN(c2nc3c(F)c(-c4cc(O)cc5ccccc45)c(Cl)cc3c3c2nc(CC2CCNCC2)n3[C@H]2[C@H]3CN[C@@H]2C3)C1` (relative stereo) [Example 77, 4-(1-((endo)-2-azabicyclo[2.1.1]hexan-5-yl)-8-chloro-4-(3-(dimethylamino)azetidin-1-yl)-6-fluoro-2-(piperidin-4-ylmethyl)-1H-imidazo[4,5-c]quinolin-7-yl)naphthalen-2-ol], on KRAS G12D, the pIC50 is 5.30 to 6.00.

Take `CN(C)C1CN(c2nc3c(F)c(-c4cc(O)cc5ccccc45)c(Cl)cc3c3c2nc(C2CCS(=O)(=O)CC2)n3[C@H]2[C@H]3CN[C@@H]2C3)C1` (relative stereo) [Example 79, 4-(1-((endo)-2-azabicyclo[2.1.1]hexan-5-yl)-8-chloro-4-(3-(dimethylamino)azetidin-1-yl)-6-fluoro-7-(3-hydroxynaphthalen-1-yl)-1H-imidazo[4,5-c]quinolin-2-yl)tetrahydro-2H-thiopyran 1,1-dioxide]: the pIC50 on KRAS G12D was 6.00 to 7.00.

For `CN(C)C1CN(c2nc3c(F)c(-c4cc(O)cc5ccc(Cl)cc45)c(Cl)cc3c3c2ncn3[C@H]2[C@H]3CN[C@@H]2C3)C1` (single isomer, unassigned) [Example 23a, 4-(1-((endo)-2-azabicyclo[2.1.1]hexan-5-yl)-8-chloro-4-(3-(dimethylamino)azetidin-1-yl)-6-fluoro-1H-imidazo[4,5-c]quinolin-7-yl)-6-chloronaphthalen-2-ol], at KRAS G12D, the pIC50 was 6.00 to 7.00.

For `CN(C)C1CN(c2nc3c(F)c(-c4cc(O)cc5ccccc45)c(-c4cn[nH]c4)cc3c3c2ncn3[C@H]2[C@H]3CN[C@@H]2C3)C1` (single isomer, unassigned) [Example 25a, 4-(1-((endo)-2-azabicyclo[2.1.1]hexan-5-yl)-4-(3-(dimethylamino)azetidin-1-yl)-6-fluoro-8-(1H-pyrazol-4-yl)-1H-imidazo[4,5-c]quinolin-7-yl)naphthalen-2-ol], the pIC50 at KRAS G12D was 5.00 to 5.30.

Take `Cc1cc2c(nc(N3CC(N(C)C)C3)c3ncn([C@H]4[C@H]5CN[C@@H]4C5)c32)c(F)c1-c1cc(O)cc2ccccc12` (single isomer, unassigned) [Example 34a, 4-(1-((endo)-2-azabicyclo[2.1.1]hexan-5-yl)-4-(3-(dimethyl-amino)azetidin-1-yl)-6-fluoro-8-methyl-1H-imidazo[4,5-c]quinolin-7-yl)naphthalen-2-ol]: on KRAS G12D, the pIC50 is 6.00 to 7.00.

Take `Oc1cc(-c2c(Cl)cc3c(nc(N4C5CCC4CNC5)c4ncn([C@H]5[C@H]6CN[C@@H]5C6)c43)c2F)c2ccccc2c1` (single isomer, unassigned) [Example 35a, 4-(1-((endo)-2-azabicyclo[2.1.1]hexan-5-yl)-4-(3,8-diazabicyclo[3.2.1]octan-8-yl)-8-chloro-6-fluoro-1H-imidazo[4,5-c]quinolin-7-yl)naphthalen-2-ol]: the pIC50 at KRAS G12D is 5.30 to 6.00.

As for `CN(C)C1CN(c2nc3c(F)c(-c4cc(O)cc5ccccc45)c(Cl)cc3c3c2ncn3[C@H]2[C@H]3CN[C@@H]2C3)C1` (single isomer, unassigned) [Example 48a, 4-(1-((endo)-2-azabicyclo[2.1.1]hexan-5-yl)-8-chloro-4-(3-(dimethylamino)azetidin-1-yl)-6-fluoro-1H-imidazo[4,5-c]quinolin-7-yl)naphthalen-2-ol], the pIC50 on KRAS G12D is 6.00 to 7.00.

Take `CN(C)C(=O)CCc1nc2c(N3CC(N(C)C)C3)nc3c(F)c(-c4cccc5ccc(F)cc45)c(CCC#N)cc3c2n1C1C2CNC1C2` (single isomer, unassigned) [Example 291b, 3-(1-((endo)-2-azabicyclo[2.1.1]hexan-5-yl)-8-(2-cyanoethyl)-4-(3-(dimethylamino)azetidin-1-yl)-6-fluoro-7-(7-fluoronaphthalen-1-yl)-1H-imidazo[4,5-c]quinolin-2-yl)-N,N-dimethylpropanamide]: the pIC50 on KRAS G12D was at least 7.00.

`C=CC(=O)N1CC[C@H](n2nnc3c(OC[C@@H]4CCCN4C)nc4c(Cl)c(-c5cccc(C)c5Cl)c(Cl)cc4c32)C[C@H]1CC#N` [Example 286, 2-((2S,4S)-1-acryloyl-4-(6,8-dichloro-7-(2-chloro-3-methylphenyl)-4-(((S)-1-methylpyrrolidin-2-yl)methoxy)-1H-[1,2,3]triazolo[4,5-c]quinolin-1-yl)piperidin-2-yl)acetonitrile]: the pIC50 (on KRAS G12C; in test [1]) was at least 7.00 in each case.

Consider `C=CC(=O)N1CC[C@H](n2nnc3c(OC[C@@H]4CCCN4C)nc4c(Cl)c(-c5cccc(Cl)c5C)c(Cl)cc4c32)C[C@H]1CC#N` [Example 287, 2-((2S,4S)-1-acryloyl-4-(6,8-dichloro-7-(3-chloro-2-methylphenyl)-4-(((S)-1-methylpyrrolidin-2-yl)methoxy)-1H-[1,2,3]triazolo[4,5-c]quinolin-1-yl)piperidin-2-yl)acetonitrile], for which the pIC50 (at KRAS G12C; in test [1]) was at least 7.00 each time.

Take `C=CC(=O)N1CC[C@H](n2nnc3c(N4CC(N(C)C)C4)nc4c(Cl)c(-c5cccc(Cl)c5OC)c(Cl)cc4c32)C[C@H]1CC#N` [Example 290, 2-((2S,4S)-1-acryloyl-4-(6,8-dichloro-7-(3-chloro-2-methoxyphenyl)-4-(3-(dimethylamino)azetidin-1-yl)-1H-[1,2,3]triazolo[4,5-c]quinolin-1-yl)piperidin-2-yl)acetonitrile]: the pIC50 (at KRAS G12C; in test [1]) was at least 7.00 in each case.
